Measurements published in ChEMBL document CHEMBL5126609, “Design, Synthesis, and Pharmacological Evaluation of Benzimidazolo-thiazoles as Potent CXCR3 Antagonists with Therapeutic Potential in Autoimmune Diseases: Discovery of ACT-672125” (J Med Chem, 2022).
Converted amounts (≈) assume the structure as drawn.

How the values were obtained:
[1] = target: T1, C-X-C chemokine receptor type 3 (Homo sapiens, UniProt P49682); assay: Antagonist activity at human recombinant CXCR3 in human venous blood assessed as receptor internalization measured for 30 mins in presence of CXCL10 by flow cytometric analysis
T1 sequence (P49682 whole entry): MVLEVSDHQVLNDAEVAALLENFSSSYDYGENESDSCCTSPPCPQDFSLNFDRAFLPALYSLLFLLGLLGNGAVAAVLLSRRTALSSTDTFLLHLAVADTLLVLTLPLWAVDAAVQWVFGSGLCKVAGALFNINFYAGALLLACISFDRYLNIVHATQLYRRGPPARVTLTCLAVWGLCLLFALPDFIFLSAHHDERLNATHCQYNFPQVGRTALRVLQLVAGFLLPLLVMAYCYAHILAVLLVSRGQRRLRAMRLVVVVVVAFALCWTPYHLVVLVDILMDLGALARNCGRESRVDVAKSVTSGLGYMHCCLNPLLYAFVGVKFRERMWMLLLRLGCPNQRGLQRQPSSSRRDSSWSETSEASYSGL

hERG (KCNH2) = hERG (KCNH2) (Homo sapiens, UniProt Q12809); assay: Inhibition of hERG expressed in CHO cells at 3 uM at -80 mV holding potential assessed as current block incubated for 3 mins by Qpatch clamp method relative to control
[2] = target: T1, C-X-C chemokine receptor type 3; assay: Antagonist activity at human recombinant CXCR3 expressed in CHO-K1 cells measured after 10 mins in presence of CXCL10 by FLIPR analysis
in vitro [3] = conditions: human, microsomes
[4] = Lipophilicity, log D of the compound at pH 7.4; conditions: buffer
in vivo [5] = conditions: Balb/c, mouse, po, 10 mg/kg
in vitro [6] = conditions: mouse, microsomes
in vivo [7] = conditions: Balb/c, mouse, po, 10 mg/kg; remark: listed apart in the source
in vivo [8] = conditions: Balb/c, mouse, po, 10 mg/kg; remark: listed apart in the source
[9] = Solubility of the compound in FeSSIF; conditions: simulated gi fluid
[10] = Unbound fraction in mouse plasma by equilibrium based LC-MS/MS analysis
[11] = Unbound fraction in human plasma by equilibrium based LC-MS/MS analysis
[12] = Solubility of the compound in FaSSIF; conditions: simulated gi fluid

Sequence of hERG (KCNH2) (Q12809 whole entry): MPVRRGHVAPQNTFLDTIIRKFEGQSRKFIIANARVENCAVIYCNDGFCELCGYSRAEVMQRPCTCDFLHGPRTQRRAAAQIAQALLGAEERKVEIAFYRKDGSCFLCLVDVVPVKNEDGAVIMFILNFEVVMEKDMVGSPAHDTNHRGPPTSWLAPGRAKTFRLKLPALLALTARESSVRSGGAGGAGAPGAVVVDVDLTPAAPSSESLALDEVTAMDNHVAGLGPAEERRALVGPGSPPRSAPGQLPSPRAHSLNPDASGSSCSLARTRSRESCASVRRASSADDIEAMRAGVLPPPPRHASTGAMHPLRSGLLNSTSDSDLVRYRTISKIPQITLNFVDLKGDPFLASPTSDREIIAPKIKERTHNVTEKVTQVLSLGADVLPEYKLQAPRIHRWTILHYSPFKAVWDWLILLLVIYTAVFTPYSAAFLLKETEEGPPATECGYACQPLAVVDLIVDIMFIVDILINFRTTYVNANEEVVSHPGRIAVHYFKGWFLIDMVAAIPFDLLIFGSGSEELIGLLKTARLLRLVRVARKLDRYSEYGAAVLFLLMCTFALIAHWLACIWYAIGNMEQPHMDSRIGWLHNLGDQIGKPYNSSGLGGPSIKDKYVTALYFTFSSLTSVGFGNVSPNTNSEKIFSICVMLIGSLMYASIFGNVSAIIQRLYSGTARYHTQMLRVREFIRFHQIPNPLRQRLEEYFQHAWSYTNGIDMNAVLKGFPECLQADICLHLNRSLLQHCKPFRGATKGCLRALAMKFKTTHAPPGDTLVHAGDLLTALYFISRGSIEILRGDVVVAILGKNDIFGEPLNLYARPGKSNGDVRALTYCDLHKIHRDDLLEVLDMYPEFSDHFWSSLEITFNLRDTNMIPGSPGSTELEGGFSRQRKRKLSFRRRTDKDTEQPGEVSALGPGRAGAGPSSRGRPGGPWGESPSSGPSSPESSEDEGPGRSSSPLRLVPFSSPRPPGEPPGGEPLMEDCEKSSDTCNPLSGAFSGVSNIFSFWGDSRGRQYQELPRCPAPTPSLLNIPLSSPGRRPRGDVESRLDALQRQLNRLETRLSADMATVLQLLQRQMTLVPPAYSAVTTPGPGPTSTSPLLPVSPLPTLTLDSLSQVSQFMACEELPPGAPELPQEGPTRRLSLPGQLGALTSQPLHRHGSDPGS

SMILES | IC50 [1] | inhibition at 0.05 h, 3 µM (hERG (KCNH2)) | IC50 [2] | also measured
C[C@@H]1CN(c2sc(C(F)(F)F)nc2-c2nc3cc(Cl)ccc3[nH]2)CCN1C(=O)Cn1cnc2cccnc21 | 38.5 nM | 83% | 2.8 nM | 
Cc1nc(C)n(CC(=O)N2CCN(c3sc(C(F)(F)F)nc3-c3nc4ccc(C5CCNCC5)cc4[nH]3)C[C@H]2C)n1 | 307 nM | 5% | 2.2 nM | 
Cc1nc(C)n(CC(=O)N2CCN(c3sc(C(F)(F)F)nc3-c3nc4ccc(N5CCOCC5)cc4[nH]3)C[C@H]2C)n1 | 368 nM | 4% | 5.7 nM | microsomal CLint at 0.25 h, 1 µM (in vitro [3]): 19 µL/min/mg; logD [4]: 2; Cmax (in vivo [5]): 4320 ng/mL; microsomal CLint at 0.25 h, 1 µM (in vitro [6]): 18 µL/min/mg; AUC (in vivo [7]): 4110 ng·h/mL; Tmax (in vivo [8]): 15 min; solubility [9]: 963 µg/mL (≈ 1630 µM)
Cc1nc(C)n(CC(=O)N2CCN(c3sc(C(F)(F)F)nc3-c3nc4ccc(C5CCOCC5)cc4[nH]3)C[C@H]2C)n1 | 123 nM | 18% | 3.3 nM | microsomal CLint at 0.25 h, 1 µM (in vitro [3]): 18 µL/min/mg; logD [4]: 3.7; Cmax (in vivo [5]): 1980 ng/mL; microsomal CLint at 0.25 h, 1 µM (in vitro [6]): 46 µL/min/mg; AUC (in vivo [7]): 545 ng·h/mL; Tmax (in vivo [8]): 18 min; solubility [9]: > 1000 µg/mL
Cc1nc(C)n(CC(=O)N2CCN(c3sc(C(F)(F)F)nc3-c3nc4ccc(OC5CNC5)cc4[nH]3)C[C@H]2C)n1 | 580 nM | 0% | 3.8 nM | 
C[C@@H]1CN(c2sc(C(F)(F)F)nc2-c2nc3ccccc3[nH]2)CCN1C(=O)Cn1cccn1 | 191 nM | 54% | 13 nM | microsomal CLint at 0.25 h, 1 µM (in vitro [3]): 44 µL/min/mg; fraction unbound [10]: 0.026; logD [4]: 3.4; Cmax (in vivo [5]): 670 ng/mL; fraction unbound [11]: 0.052; microsomal CLint at 0.25 h, 1 µM (in vitro [6]): 218 µL/min/mg; AUC (in vivo [7]): 720 ng·h/mL; Tmax (in vivo [8]): 15 min; solubility [12]: 352 µg/mL (≈ 740 µM); solubility [9]: 734 µg/mL (≈ 1540 µM)
C[C@@H]1CN(c2sc(C(F)(F)F)nc2-c2nc3ccccc3[nH]2)CCN1C(=O)Cn1c(=O)[nH]c2cccnc21 | 143 nM | 53% | 2.6 nM | 
Cc1nc(C)n(CC(=O)N2CCN(c3sc(C(F)(F)F)nc3-c3nc4ccc(C(C)(C)O)c(F)c4[nH]3)C[C@H]2C)n1 |  | 18% |  | 
Cc1nc(C)n(CC(=O)N2CCN(c3sc(C(F)(F)F)nc3-c3nc4cccc(C)c4[nH]3)C[C@H]2C)n1 |  | 52% |  | 
COC1CCN(CC(=O)N2CCN(c3sc(C(F)(F)F)nc3-c3nc4ccccc4[nH]3)C[C@H]2C)C1 (stereo partly specified) |  | 85% |  | 
Cc1nc(C)n(CC(=O)N2CCN(c3sc(C(F)(F)F)nc3-c3nc4cc(N5CCOCC5)cc(F)c4[nH]3)C[C@H]2C)n1 |  | 6% |  | 
C[C@@H]1CN(c2sc(C(F)(F)F)nc2-c2nc3ccccc3[nH]2)CCN1C(=O)CN1CCC(F)(F)CC1 |  | 84% |  | 
C[C@@H]1CN(c2sc(C(F)(F)F)nc2-c2nc3ccccc3[nH]2)CCN1C(=O)CN1C(=O)OC[C@@H]1c1ccccc1 |  | 83% |  | 
Cc1nc(C)n(CC(=O)N2CCN(c3sc(C(F)(F)F)nc3-c3nc4ccc(S(C)(=O)=O)cc4[nH]3)C[C@H]2C)n1 |  | 8% |  | 
Cc1nc(C)n(CC(=O)N2CCN(c3sc(C(F)(F)F)nc3-c3nc4ccc(O)c(F)c4[nH]3)C[C@H]2C)n1 |  | 15% |  | 
Cc1nc(C)n(CC(=O)N2CCN(c3sc(C(F)(F)F)nc3-c3nc4ccc(OC5COC5)cc4[nH]3)C[C@H]2C)n1 |  | 0% |  | 
Cc1nc(C)n(CC(=O)N2CCN(c3sc(C(F)(F)F)nc3-c3nc4ccc(N5CCOCC5)c(F)c4[nH]3)C[C@H]2C)n1 |  | 25% |  | 
C[C@@H]1CN(c2sc(C(F)(F)F)nc2-c2nc3ccccc3[nH]2)CCN1C(=O)Cn1ccc(C(=O)O)n1 |  | -2% |  | 
